This assay is described as follows: Antagonist activity at human CXCR3 expressed in L1.2 cells assessed as inhibition of I-TAC-induced cell migration by flow cytometry. (A flow cytometer gives signals particle by particle.)

One may read the IC50 as the concentration at which inhibition is half-maximal. `CCN(CC)C(=O)[C@@H]1C=C2c3cccc4[nH]cc(c34)C[C@H]2N(C(=O)Nc2ccccc2)C1` [(6aR,9R)-N9,N9-diethyl-N7-phenyl-6,6a,8,9-tetrahydroindolo[4,3-fg]quinoline-7,9(4H)-dicarboxamide]: the IC50 turned out to be 0.074 µM.
